Experimental findings from patent US10308660B2, “Compounds and compositions for inhibiting the activity of SHP2” (Novartis AG, priority 2015, dated 2019) are described below.

Each structure is given as a SMILES string.

For this experiment, the target named is SHP2 (Homo sapiens (Human), UniProt Q06124). Description: SHP2 allosteric inhibition assay (DiFMUP prompt fluorescence). In kind it is biochemical. Particulars: 0.5 nM SHP2 activated with 0.5 μM peptide IRS1_pY1172(dPEG8)pY1222; substrate DiFMUP; 25° C.
Chain of SHP2 (Q06124 whole entry): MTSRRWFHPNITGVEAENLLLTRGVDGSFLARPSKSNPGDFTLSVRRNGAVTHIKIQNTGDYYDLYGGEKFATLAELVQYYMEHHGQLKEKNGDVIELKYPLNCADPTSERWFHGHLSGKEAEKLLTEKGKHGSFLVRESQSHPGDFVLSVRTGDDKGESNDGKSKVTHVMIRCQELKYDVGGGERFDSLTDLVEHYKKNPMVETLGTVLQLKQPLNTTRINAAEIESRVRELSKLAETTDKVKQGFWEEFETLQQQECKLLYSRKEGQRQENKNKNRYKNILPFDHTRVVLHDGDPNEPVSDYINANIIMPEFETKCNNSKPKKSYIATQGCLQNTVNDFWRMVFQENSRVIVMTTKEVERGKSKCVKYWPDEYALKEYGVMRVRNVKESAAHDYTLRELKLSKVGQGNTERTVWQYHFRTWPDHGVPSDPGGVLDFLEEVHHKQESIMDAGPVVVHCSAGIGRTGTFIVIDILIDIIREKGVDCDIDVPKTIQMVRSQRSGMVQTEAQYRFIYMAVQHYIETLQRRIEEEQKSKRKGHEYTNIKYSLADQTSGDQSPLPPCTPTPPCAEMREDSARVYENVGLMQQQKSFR

For `COc1ccc(-c2c(N)nc(N3CCC4(CC3)CO[C@@H](C)[C@H]4N)n(C)c2=O)cc1` [Example 159], the midpoint of inhibition, the IC50, lay at 56 nM. With `C[C@@H]1OCC2(CCN(c3nc(N)c(-c4cccc(F)c4F)c(=O)n3C)CC2)[C@@H]1N` [Example 143], half-maximal inhibition (IC50) required 28 nM.

`Cn1c(N2CCC3(CC[C@@H]3N)CC2)ncc(Sc2cccc(Cl)c2Cl)c1=O` [Example 104] gave an IC50 of 109 nM. The compound `C[C@@H]1OCC2(CCN(c3nc(N)c(-c4ccc(F)c(F)c4)c(=O)n3C)CC2)[C@@H]1N` [Example 133] registered an IC50 of 17 nM. `Cn1c(N2CCC3(CC2)C[C@H](C(F)(F)F)C[C@H]3N)nc(N)c(Sc2cccnc2C(F)(F)F)c1=O` [Example 83] gave an IC50 of 56 nM. As to `N[C@@H]1CCCC12CCN(c1ncc(Sc3cccnc3C(F)(F)F)c(=O)[nH]1)CC2` [Example 92], 92 nM corresponded to half-maximal inhibition (IC50). `C[C@@H]1CC2(CCN(c3nc(N)c(Sc4ccnc(N)c4Cl)c(=O)n3C)CC2)[C@H](N)[C@@H]1F` (single isomer, unassigned) [Example 38] showed an IC50 of 30 nM. Regarding `C[C@@H]1OCC2(CCN(c3nc(N)c(-c4cc(Cl)ccc4Cl)c(=O)n3C)CC2)[C@@H]1N` [Example 186], the IC50 came out at 2230 nM. Then `C[C@H]1C[C@@H](N)C2(CCN(c3nc(N)c(-c4cccc(F)c4F)c(=O)n3C)CC2)C1` [Example 126], with 12 nM; and `Cn1c(N2CCC(C)(CN)CC2)nc(N)c(Sc2cccc(N)c2Cl)c1=O` [Example 8], with 232 nM.

`C[C@H]1C[C@@H](N)C2(CCN(c3nc(N)c(Sc4ccnc(N5CCCC5)c4Cl)c(=O)n3C)CC2)C1` [Example 62] gave an IC50 of 25 nM. Compound `Cc1ncccc1Sc1c(N)nc(N2CCC3(CC2)CO[C@@H](C)[C@H]3N)n(C)c1=O` [Example 80] registered an IC50 of 68 nM. The compound `C[C@H]1C[C@@H](N)C2(CCN(c3nc(N)c(Sc4ccnc(N)c4Cl)c(=O)n3C)CC2)C1` [Example 21] yielded an IC50 of 28 nM.

In turn, `CC(C)c1ccc(-c2c(N)nc(N3CCC4(CC3)CO[C@@H](C)[C@H]4N)n(C)c2=O)cc1` [Example 131] had an IC50 of 16 nM. `C[C@@H]1OCC2(CCN(c3nc(N)c(Sc4ccnc(C(F)(F)F)c4Cl)c(=O)n3C)CC2)[C@@H]1N` [Example 59] displayed a half-maximal inhibitory concentration (IC50) of 43 nM. In turn, `C[C@@H]1OCC2(CCN(c3nc(N)c(-c4ccc(OC(F)(F)F)cc4)c(=O)n3C)CC2)[C@@H]1N` [Example 169] came in with a half-maximal inhibitory concentration (IC50) of 119 nM. In the case of `Cn1c(N2CCC(C)(CN)CC2)ccc(Sc2cccc(Cl)c2Cl)c1=O` [Example 116, 6-(4-(aminomethyl)-4-methylpiperidin-1-yl)-3-((2,3-dichlorophenyl)thio)-1-methylpyridin-2(1H)-one] it was 1620 nM; in that of `COc1ccc(-c2c(N)nc(N3CCC4(CC3)CO[C@@H](C)[C@H]4N)n(C)c2=O)cc1F` [Example 157], 52 nM. Turning to `C[C@@H]1OCC2(CCN(c3nc(N)c(-c4ccccc4Cl)c(=O)n3C)CC2)[C@@H]1N` [Example 152], inhibition was half-maximal at 45 nM (IC50). Compound `Cn1c(N2CCC(C)(CN)CC2)ncc(Sc2cccnc2C(F)(F)F)c1=O` [Example 100] had an IC50 of 631 nM.

In turn, `Cn1c(N2CCC(C)(CN)CC2)nc(N)c(Sc2cccc(OC(F)(F)F)c2)c1=O` [Example 11] displayed an IC50 of 441 nM. Take `CCOc1nccc(Sc2cnc(N3CCC4(CC3)CO[C@@H](C)[C@H]4N)[nH]c2=O)c1Cl` [Example 95]: the IC50 came to 23 nM.

`Cn1c(N2CCC3(CC2)CC(F)(F)C[C@H]3N)nc(N)c(-c2cccc(Cl)c2Cl)c1=O` [Example 137]: the half-inhibitory concentration (IC50) stood at 22 nM.

Regarding `C[C@@H]1OCC2(CCN(c3nc(N)c(-c4ccc(Oc5ccccc5)cc4)c(=O)n3C)CC2)[C@@H]1N` [Example 142], the IC50 was 27 nM. In turn, `C[C@@H]1OCC2(CCN(c3ncc(Sc4ccnc(N)c4Cl)c(=O)n3C)CC2)[C@@H]1N` [Example 113] yielded a half-maximal inhibitory concentration (IC50) of 35 nM. In the case of `Cn1c(N2CCC3(CC2)C[C@H](F)C[C@H]3N)nc(N)c(Sc2cccnc2C(F)(F)F)c1=O` [Example 35] it was 24 nM; in that of `Cn1c(N2CCC3(CC2)CC(F)(F)C[C@H]3N)nc(N)c(Sc2ccnc(N)c2Cl)c1=O` [Example 42], 14 nM; in that of `C[C@@H]1OCC2(CCN(c3nc(N)c(-c4cc(F)cc(F)c4)c(=O)n3C)CC2)[C@@H]1N` [Example 164], 75 nM. In the case of `C[C@@H]1OCC2(CCN(c3nc(N)c(-c4ccc(Cl)cc4)c(=O)n3C)CC2)[C@@H]1N` [Example 136], the 50% inhibitory concentration (IC50) is 20 nM. With `COc1nccc(Sc2cnc(N3CCC4(CC3)CO[C@@H](C)[C@H]4N)n(C)c2=O)c1Cl` [Example 105], 8 nM corresponded to half-maximal inhibition (IC50). With `Cn1c(N2CCC3(CC2)C[C@@H](C(F)(F)F)C[C@H]3N)nc(N)c(-c2ccccc2)c1=O` [Example 161], the IC50 is 63 nM. As for `C[C@@H]1OCC2(CCN(c3nc(N)c(Sc4cccc(N)c4Cl)c(=O)n3C)CC2)[C@@H]1N` [Example 25], inhibition was half-maximal at 38 nM (IC50).

In turn, `C[C@@H]1OCC2(CCN(c3nc(N)c(-c4ccc(C#N)cc4)c(=O)n3C)CC2)[C@@H]1N` [Example 175] yielded an IC50 of 256 nM. With `C[C@H]1C[C@@H](N)C2(CCN(c3nc(N)c(Sc4cc(N)cnc4Cl)c(=O)n3C)CC2)C1` [Example 68], inhibition was half-maximal at 10 nM (IC50).

As to `C[C@H]1C[C@@H](N)C2(CCN(c3nc(N)c(Sc4ccncc4Cl)c(=O)n3C)CC2)C1` [Example 76], the IC50 amounted to 27 nM. The compound `COc1ccccc1Sc1c(N)nc(N2CCC(C)(CN)CC2)n(C)c1=O` [Example 47] gave an IC50 of 206 nM. In the case of `C[C@H]1C[C@@H](N)C2(CCN(c3nc(N)c(Sc4ccncc4C(F)(F)F)c(=O)n3C)CC2)C1` [Example 75] it was 18 nM.

Regarding `Cc1ccccc1Sc1c(N)nc(N2CCC(C)(CN)CC2)n(C)c1=O` [Example 54], it took 200 nM to reach half-maximal inhibition (IC50). `Cn1c(N2CCC(C)(CN)CC2)nc(N)c(-c2cccc(Cl)c2Cl)c1=O` [Example 193] returned an IC50 of 40 nM. Then `Cc1ccc(-c2c(N)nc(N3CCC4(CC3)CO[C@@H](C)[C@H]4N)n(C)c2=O)cc1Cl` [Example 123, 6-amino-2-((3S,4S)-4-amino-3-methyl-2-oxa-8-azaspiro[4.5]decan-8-yl)-5-(3-chloro-4-methylphenyl)-3-methylpyrimidin-4(3H)-one], with 14 nM; and `C[C@@H]1OCC2(CCN(c3nc(N)c(-c4ccnc(Cl)c4)c(=O)n3C)CC2)[C@@H]1N` [Example 187], with 2950 nM. `Cn1c(N2CCC(C)(CN)CC2)nc(N)c(Sc2cccc3ncccc23)c1=O` [Example 24] registered an IC50 of 299 nM. Then `C[C@@H]1OCC2(CCN(c3nc(N)c(-c4ccc(-c5ccccc5)cc4)c(=O)n3C)CC2)[C@@H]1N` [Example 168], with 107 nM. The compound `CC1(CN)CCN(c2ncc(Sc3ccccc3Cl)c(=O)[nH]2)CC1` [Example 94] registered an IC50 of 178 nM. For the compound `C[C@@H]1OCC2(CCN(c3nc(N)c(Sc4ccccc4Cl)c(=O)n3C)CC2)[C@@H]1N` [Example 27], the IC50 stood at 25 nM. Compound `C[C@@H]1OCC2(CCN(c3cc(N)c(Sc4cccnc4C(F)(F)F)c(=O)[nH]3)CC2)[C@@H]1N` [Example 88, 4-amino-6-((3S,4S)-4-amino-3-methyl-2-oxa-8-azaspiro[4.5]decan-8-yl)-3-((2-(trifluoromethyl)pyridin-3-yl)thio)pyridin-2(1H)-one] displayed an IC50 of 42 nM.

Compound `CC[C@@H]1OCC2(CCN(c3nc(N)c(Sc4ccnc(C)c4Cl)c(=O)n3C)CC2)[C@@H]1N` [Example 86] showed an IC50 of 22 nM.

As to `Cn1c(N2CCC(C)(CN)CC2)nc(N)c(Sc2cccc3c2OC(F)(F)O3)c1=O` [Example 50], the midpoint of inhibition, the IC50, lay at 152 nM. Compound `C[C@H]1C[C@@H](N)C2(CCN(c3nc(N)c(-c4cccc(Cl)c4Cl)c(=O)n3C)CC2)C1` [Example 129] yielded an IC50 of 14 nM. For the compound `Cn1c(N2CCC3(CC2)C[C@@H](C(F)(F)F)C[C@H]3N)nc(N)c(Sc2cccnc2C(F)(F)F)c1=O` [Example 84], the IC50 came to 72 nM. As for `C[C@@H]1OCC2(CCN(c3nc(N)c(-c4cccc(C(F)(F)F)c4)c(=O)n3C)CC2)[C@@H]1N` [Example 184], the half-maximal inhibitory concentration (IC50) is 1690 nM. In turn, `C[C@@H]1OCC2(CCN(c3nc(N)c(-c4ccc(F)cc4)c(=O)n3C)CC2)[C@@H]1N` [Example 146] came in with an IC50 of 38 nM. In the case of `CC1(CN)CCN(c2ncc(-c3cccc(Cl)c3Cl)c(=O)[nH]2)CC1` [Example 200] it was more than 100000 nM; in that of `COc1ccc(Sc2c(N)nc(N3CCC4(CC3)CO[C@@H](C)[C@H]4N)n(C)c2=O)cc1F` [Example 79], 370 nM. `Cn1c(N2CCC(C)(CN)CC2)nc(N)c(Sc2cccc(Cl)c2)c1=O` [Example 5] came in with a half-inhibitory concentration (IC50) of 2210 nM.

In turn, `Cn1c(N2CCC(C)(CN)CC2)ncc(Sc2ccnc(Cl)c2Cl)c1=O` [Example 115] registered a half-inhibitory concentration (IC50) of 83 nM. `Cn1c(N2CCC3(CCC[C@H]3N)CC2)nc(N)c(Sc2cccnc2C(F)(F)F)c1=O` [Example 14] had an IC50 of 98 nM. Regarding `CCOc1nccc(Sc2c(N)nc(N3CCC4(CC3)CO[C@@H](C)[C@H]4N)n(C)c2=O)c1Cl` [Example 30], the IC50 turned out to be 32 nM. With `C[C@@H]1OCC2(CCN(c3nc(N)c(-c4ccccc4F)c(=O)n3C)CC2)[C@@H]1N` [Example 153], the midpoint of inhibition, the IC50, lay at 46 nM. For the compound `C[C@H]1CC2(CCN(c3nc(N)c(Sc4cccnc4C(F)(F)F)c(=O)n3C)CC2)[C@H](N)[C@@H]1C(F)(F)F` (single isomer, unassigned) [Example 65], the IC50 was found to be 61 nM. Then `C[C@@H]1OCC2(CCN(c3nc(N)c(-c4ccccn4)c(=O)n3C)CC2)[C@@H]1N` [Example 182], with 1060 nM.
